The experiment deals with headfold-stage allantoic explants. The note with it: for formation / retention of vascular channels in explants: 5% FCS, feeding at 24 hour intervals, by 72 hours.

Like-named read-outs stand apart in the source and are kept apart here.

Procedure: At the onset of culture, or at varying times thereafter, known test compounds, such as Vascular Endothelial Growth Factor (VEGF, R & D Systems, Minneapolis, Minn.), are prepared according to the manufacturer's instructions and added to the cultures in concentrations recommended by the manufacturer (e.g., 1-20 ng VEGF/ml culture medium) or, in the case of unknown test compounds, in varying concentrations to determine the one that either inhibits or enhances vasculogenesis.
To test that possibility, recombinant VEGE (1-10 ng/ml culture medium) was added to explants at the start of culture in 5% FOS.
For survival and vascularization, allantoises were mouth-aspirated into a hand-pulled glass microcapillary (K. M. Downs and R. L. Gardner, supra, 1995; K. M. Downs, et al., supra, 1998) and either cultured in suspension as previously described (K. M. Downs, et al., supra, 1998) or placed individually (i) into wells of 24-well tissue-culture plates (Falcon 3047), (ii) onto glass cover slips (12 mm, Fisher) coated for 30 minutes in filtered (0.45 μm, cellulose acetate) poly-D-lysine (1 mg/ml double processed tissue culture water; Sigma) inserted into wells of 24-well tissue-culture plates and rinsed 34 times with sterile water, (iii) into sterile 8-well plastic chamber slides (Lab-Tek, Nunc), or (iv) into 8-well glass chamber slides some of which were coated in poly-D-lysine. Allantoises were cultured in 0.5 ml (24-well tissue-culture dishes or Falcon culture tubes (K. M. Downs and R. L. Gardner, supra, 1995) or 0.4 ml (8-well chamber slides) of culture medium (Dulbecco's modified Eagle's medium (DMEM) containing either equal parts of immediately-centrifuged and heat-inactivated rat serum as previously described (K. M. Downs and R. L. Gardner, supra, 1995) or 5, 10 and 20% heat-inactivated fetal calf serum (Gibco-BRL; frozen and thawed twice before using) for 24-72 hours at 37° C. in 6.2% CO2 in air. For culture longer than 24 hours, allantoises were given completely fresh medium at 24-hour intervals. In some experiments, erythrosin B (Fisher; 0.04% in phosphate-buffered saline (PBS); H. J. Phillips and J. E. Terryberry, Exp. Cell Res. 13:341-347, 1957) was diluted 1:1 in dissection medium to verify allantoic cell viability. Vascular Endothelial Growth Factor (R & D System,s Minneapolis, Minn.) was prepared according to the manufacturer's instructions and was added to culture medium containing 5% FCS in concentrations of 1-20 ng/ml.
To test that possibility, recombinant VEGF (1-10 ng/ml culture medium) was added to explants at the start of culture in 5% FCS.

For VEGF, the “formation / retention of vascular channels in explants” value is, setting by setting: (VEGF 1 ng/ml) “devoid of such channels”; (VEGF 2-10 ng/ml, added at start of culture) “retention of Flk-1 containing vascular channels and overlying VCAM-1 positive cells”; (VEGF 2-10 ng/ml, added at start of culture, listed as Vascular Endothelial Growth Factor) “formation of many vascular channels containing Flk-1 and Flt-1”. Further, the “cell survival (cell retention)” value (VEGF 2-10 ng/ml in 5% FCS, untreated explants in FCS alone 36%) was 78%. Besides, the “survival of angioblasts and morphogenesis into vessels” value (explants cultured in low serum) is “promoted their survival and morphogenesis into vessels”.
